Laboratory results from paper PMC4864078, “De Novo Transcriptome Analysis and Detection of Antimicrobial Peptides of the American Cockroach Periplaneta americana (Linnaeus)” (PLoS ONE, 2016).

What was measured:
[1] = tested on: Human umbilical vein endothelial cells (HUVECs); assay: Cell viability assay (MTS); assay type: cell-based; conditions: 24 h treatment, 25, 50, 100 and 200 μg/mL, OD 490 nm
Method: (§1) The human keratinocytes were maintained in Dulbecco’s Modified Eagle Medium supplemented with 10% fetal bovine serum (FBS; Hyclone, USA), penicillin G (100 U/mL), and streptomycin (100 μg/mL) (Invitrogen, USA). Human umbilical vein endothelial cells (HUVECs) were grown on 0.1% gelatin-coated cell culture dishes in M199 medium (Welgene, Korea) supplemented with 20% (v/v) FBS, 3 ng/mL basic fibroblast growth factor (R&D Systems, USA), 5 U/mL of heparin (Sigma, USA), and a penicillin-streptomycin-amphotericin B mixture (100 U/mL potassium penicillin, […] streptomycin sulfate, and 250 ng/mL amphotericin B; Lonza, Belgium) as a complete medium. Cells were cultured at 37°C in a humidified incubator with 5% CO2. Cells were plated in 96-well tissue culture plates (2 × 10^4 cells per well). After 1 day, they were treated with various concentrations (25, 50, 100, and 200 μg/mL) of peptides. Melittin (Sigma, USA) was used as the positive control. After incubation for 24 h, the viability of the cells was assessed by the Cell Titer 96 AQueous One Solution Cell Proliferation Assay according to the manufacturer’s protocol (Promega, USA). The optical density at 490 nm was measured with a microplate reader (Beckman DTX 8800 Multi Detector, USA).

human keratinocytes = assay: Cell viability assay (MTS); assay type: cell-based; conditions: 24 h treatment, 25, 50, 100 and 200 μg/mL, OD 490 nm
Method: as §1

C. albicans (ATCC 14053) = assay type: cell-based, Candida albicans; conditions: Mueller-Hinton Broth, 2 × 10^4 CFU/mL, 18 h at 37°C, visible turbidity, complete growth inhibition
Method: The bacterial strains E. coli (KACC 13821, ATCC 11775) and Staphylococcus aureus (KACC 10768, ATCC 25923), and the yeast strain Candida albicans (KCTC 7121, ATCC 14053) were purchased from the Korean Agricultural Culture Collection (KACC) and Korean Collection for Type Cultures (KCTC). Both bacteria and the yeast were cultivated overnight in tryptic soy broth (TSB; Difco, USA) at 200 rpm in a 37°C shaking incubator to the stationary phase. Bacteria were cultivated for 3 h in fresh TSB medium under the same condition to the log phase. The strains were stored with 15% glycerol at −70°C until use.
In addition, antimicrobial activities of the peptides were also tested by broth microdilution assays against E. coli, S. aureus, and C. albicans. Briefly, microbes were grown overnight in Mueller-Hinton Broth (MHB) to the onset of the stationary phase with shaking at 200 rpm. The cultures were diluted in fresh MHB to a final concentration of 2 × 10^4 CFU/mL. A stock solution of each peptide was prepared to a concentration of 640 μg/mL in 0.01% acetic acid, and was then serially diluted two-fold to reach a concentration of 10 μg/mL. After 90-μL aliquots of the microbial suspension were dispensed into each well of a 96-well polypropylene microtiter plate, 10 μL of the peptide solution was added. The antimicrobial activities of the peptides were assessed by measuring the visible turbidity in each well of the plate after 18 h of incubation at 37°C. Minimum inhibitory concentrations (MICs) are expressed as a specific value that caused complete growth inhibition.

`CC[C@H](C)[C@H](NC(=O)CN)C(=O)NCC(=O)N[C@@H](C)C(=O)N[C@H](C(=O)N[C@@H](CC(C)C)C(=O)N[C@@H](CCCCN)C(=O)N[C@H](C(=O)N[C@@H](CC(C)C)C(=O)N[C@H](C(=O)N[C@H](C(=O)NCC(=O)N[C@@H](CC(C)C)C(=O)N1CCC[C@H]1C(=O)N[C@@H](C)C(=O)N[C@@H](CC(C)C)C(=O)N[C@H](C(=O)N[C@@H](CO)C(=O)N[C@@H](Cc1c[nH]c2ccccc12)C(=O)N[C@H](C(=O)N[C@@H](CCCCN)C(=O)N[C@@H](CCCNC(=N)N)C(=O)N[C@@H](CCCCN)C(=O)N[C@@H](CCCNC(=N)N)C(=O)N[C@@H](CCC(N)=O)C(=O)N[C@@H](CCC(N)=O)C(N)=O)[C@@H](C)CC)[C@@H](C)CC)[C@@H](C)O)[C@@H](C)O)C(C)C)C(C)C` [Melittin] was tested, and the “Cell viability of HUVECs” value [1] was “more susceptible”, the “Cell viability of human keratinocytes” value (human keratinocytes) was “more susceptible” and the “Minimum Inhibitory Concentration (MIC)” value (C. albicans (ATCC 14053)) was 8 µg/mL.
